Experimental data published in article PMC5745756, “N,N-disubstituted azines attenuate LPS-mediated neuroinflammation in microglia and neuronal apoptosis via inhibiting MAPK signaling pathways” (BMC Neuroscience, 2017).

Tests used:
Type in all cases: cell-based, murine
iNOS = assay: Western blot of LPS-induced iNOS expression in BV-2 cells
Protocol: (§1) BV-2 cells were seeded in a 6-well plate at a density of 6 × 10^5 cells/well and exposed to LPS (100 ng/mL) in the presence or absence of compound 3 for required time. After treatment, cells were collected and lysed in cell lysis buffer (50 mM Tris–HCl, pH 8.0, 0.1% SDS, 150 mM NaCl, 1% NP-40, 0.02% sodium azide, 0.5% sodium deoxycholate, 100 µg/mL PMSF, and […]) for 24 h at 4 °C. The protein content was measured using a Bradford assay. Equal amounts of protein (30 µg) were separated using SDS-PAGE and transferred to a nitrocellulose membrane. […]
Fig. 2 Effect of compound 3 on LPS-induced iNOS and COX2 expression in BV-2 cells. […] Similarly, LPS activation was made for 24 h as chronic BV2 activation and the iNOS and COX-2 expression was measured (d). α-Tubulin was used as the loading control. […] After 24 h, the culture medium was subsequently collected to measure the quantity of PGE2 (e), IL-6 (f), and TNF-α (g) using ELISA analysis. […]

IL-6 = assay: ELISA of IL-6 in LPS-activated BV-2 culture medium; conditions: LPS 24 h
Protocol: To measure TNF-α, IL-6, and PGE2, BV-2 cells were seeded in a 24-well plate at a density of 3 × 10^5 cells/well. The cells were treated with LPS (100 ng/mL) in the presence or absence of compound 3 for 24 h, and the media was collected and centrifuged. IL-6, TNF-α, and PGE2 produced in microglial culture supernatants […] were measured by competitive enzyme immunoassay kits (R&D systems, Minneapolis, MN, USA) in accordance with the manufacturer’s protocol.
Fig. 2 Effect of compound 3 on LPS-induced iNOS and COX2 expression in BV-2 cells. BV-2 cells were pretreated with various concentrations (5, 10, and 20 µM) of compound 3 for 30 min and activated with 100 ng/mL LPS. After 6 h, the cells were collected for analysis of iNOS and COX-2 expression using western blot analysis (a–c). Similarly, LPS activation was made for 24 h as chronic BV2 activation and the iNOS and COX-2 expression was measured (d). α-Tubulin was used as the loading control. The densitometric analysis of bands was performed as described in the methods section. After 24 h, the culture medium was subsequently collected to measure the quantity of PGE2 (e), IL-6 (f), and TNF-α (g) using ELISA analysis. […]

[1] = test system: c-Jun N-terminal kinase (JNK); assay: Western blot of LPS-induced JNK phosphorylation in BV-2 cells; conditions: 5–20 µM; LPS 30 min, similar pattern at 24 h
Protocol: as §1, with “membrane. The membrane was blocked for 1 h with 5% skim milk in tris-buffered saline with Tween-20 (TBST) and then incubated for 12 h with primary antibodies against α-tubulin (Sigma-Aldrich Cat. no: T5168), iNOS (Bioscience Cat. no: 610333, COX-2 (Santa Cruz Cat. no: sc-1745), ERK (Cell Signaling Cat. no: 9107s), pERK (Cell Signaling Cat. no: 5013s), JNK (Cell Signaling Cat. no: 9252s), pJNK (Cell Signaling Cat. no: 4671s), p38 (Cell Signaling Cat. no: 8690s), and pP38 (Cell Signaling Cat. no: 9211s), followed by incubation for 1 h with horseradish peroxidase-conjugated secondary antibodies (Cell Signaling) at 15 °C.” for “membrane.”
(§2) Fig. 3 Effect of compound 3 on MAPK pathway in LPS-induced BV-2 cells. […] The phosphorylation of p38, JNK, and ERK was measured by western blotting (a–c). […]

[2] = test system: extracellular signal-regulated kinase (ERK); assay: Western blot of LPS-induced ERK phosphorylation in BV-2 cells; conditions: 5–20 µM; LPS 30 min, similar pattern at 24 h
Protocol: as §1, with “membrane. The membrane was blocked for 1 h with 5% skim milk in tris-buffered saline with Tween-20 (TBST) and then incubated for 12 h with primary antibodies against α-tubulin (Sigma-Aldrich Cat. no: T5168), iNOS (Bioscience Cat. no: 610333, COX-2 (Santa Cruz Cat. no: sc-1745), ERK (Cell Signaling Cat. no: 9107s), pERK (Cell Signaling Cat. no: 5013s), JNK (Cell Signaling Cat. no: 9252s), pJNK (Cell Signaling Cat. no: 4671s), p38 (Cell Signaling Cat. no: 8690s), and pP38 (Cell Signaling Cat. no: 9211s), followed by incubation for 1 h with horseradish peroxidase-conjugated secondary antibodies (Cell Signaling) at 15 °C.” for “membrane.”
as §2

N2a cells = assay: TNF-α induced N2a cytotoxicity, direct treatment
Protocol: N2a cells were used as a representative neuronal cell line for the examination of apoptotic neuron viability using direct treatment of compound 3 with TNF-α activation as well as conditioned media (CM) from LPS-stimulated BV-2 cells treated with compound 3 [28]. This assay was performed following the methods described in our previous study, with slight modifications. To measure neuron viability, BV-2 cells were first seeded and treated with 100 ng/mL LPS in the presence or absence of compound 3. After 24 h, the CM was collected and transferred to N2a cells for a further 24 h. The cell viability of N2a cells was measured using the MTT assay. Well differentiated neuronal cells were used for the experimental purpose as shown in Additional file 1: Fig. S1.
Here, we have investigated whether the compound 3 has any direct protective effects on microglia and neurons against LPS and TNF-α induced direct toxicity. As the aim of this study is to check the effectiveness of compound 3 against neurodegenerative conditions, here we checked the effect of this compound to protect microglial cells against β-amyloid induced cytotoxicity as shown in Fig. 5a. […] LPS treatment was unable to induce cellular toxicity to N2a cells (Fig. 5b). […] Compound 3 mediated neuroprotection in N2a cells is due to the inhibition of proinflammatory cytokines produced by LPS activated microglia. […]

COc1cc(/C=C/C=N/N=C/C=C/c2ccc(O)c(OC)c2)ccc1O [Compound 3, 4,4′-(1E,1′E,3E,3′E)-3,3′-(hydrazine-1,2-diylidene)bis(prop-1-ene-1-yl-3-ylidene)bis(2-methoxyphenol)]
Expression of iNOS (iNOS; 5, 10 and 20 µM, 30 min pretreatment, LPS 100 ng/mL 6 h): significantly reduced
LPS induced iNOS activation, chronic (iNOS; 24 h chronic LPS activation): dramatically rescued
IL-6 secretion (IL-6; 20 µM): noticeable activity
IL-6 secretion (IL-6; 5 and 10 µM): did not significantly inhibit
LPS-induced phosphorylation of JNK [1]: significantly inhibited
Phosphorylation of ERK [2]: did not alter
Cell viability of N2a cells against TNF-α mediated toxicity (N2a cells): increased cell viability
